Measured values reported in US12440495B2, “Combination therapy for treatment of myeloproliferative neoplasms” (Incyte Corporation, priority 2020, dated 2025).
Read-outs that look alike come from different tables or passages of the source.

How the values were obtained:
HEL cells = assay: JAK2 V617F expressing HEL xenograft model of erythroleukemia; assay type: in vivo; settings: 14 days
Method: For efficacy studies, measurements of tumors were taken every 2 to 3 days using a digital caliper. Tumor volumes were calculated using the formula: Volume=(length×width2)/2 where width was the smaller dimension. Body weights were also monitored.
Animals were sacrificed (1) at end of study, (2) if tumor size reached 10% of total body weight, or (3) if 20% of body weight is lost.
Statistical analyses were performed using Prism Graphpad software. All comparisons were done using 2-way ANOVA with p<0.05 deemed significant.
Female SCID mice were subcutaneously inoculated with 10^7 HEL cells in matrigel. When tumors reached approximately 160 mm^3, mice (n=10 per group) were dosed orally with Compound 1 for 14 days as follows: • 1. BID at either 1 or 3 mg/kg, or vehicle control • 2. QD at 3, 10, or 30 mg/kg

[1] = Clinical pharmacokinetics of Compound 1 monotherapy, Phase 1/2, advanced malignancies; assay type: in vivo, human
Method: The clinical PK of Compound 1 in participants with advanced malignancies (solid and hematologic malignancies) were evaluated in a Phase 1/2, open-label, dose-escalation/dose-expansion, safety and tolerability study. Participants received continuous QD doses of Compound 1. As of the data cutoff date (23 Sep. 2019), 25, 101, and 8 participants who received 8 mg, 12 mg, and 16 mg, respectively, across Part 1 and Part 2 (Compound 1 treated as monotherapy) have been assessed for PK. The PK parameters of parent Compound 1 are summarized in Table 2 and Table 3 (see FIG. 5). Table 2 presents a summary of Compound 1 pharmacokinetic parameters for Compound 1 as monotherapy (part 1 and 2) at cycle 1 day 1. Table 3 presents a summary of Compound 1 pharmacokinetic parameters for Compound 1 as monotherapy (part 1 and 2) at steady-state (cycle 1 day 8).
Blood samples for the determination of plasma concentrations of Compound 1 in Parts 1 and 2 were collected at predose on Cycle 1 Day 1, Cycle 1 Day 2, and Cycle 1 Day 8, and at 0.5, 1, 2, 4, 6, and 8 hours on Cycle 1 Day 1 and Cycle 1 Day 8. The plasma samples of Compound 1 were assayed by a validated LC-MS/MS method.

[2] = tested on: cMyc, a BRD4 target gene, in KMS12BM cells; assay: Ex vivo pharmacodynamic spiked cell assay, cMyc protein in KMS12BM cells in participant plasma; assay type: cell-based, human; settings: for inhibition of cMyc at trough: Cycle 1 Day 8 predose; for average cMyc inhibition at steady state: Day 8, predose to 8 hours
Method: Pharmacodynamic analysis was performed using an ex vivo assay measuring protein levels of cMyc, a BRD4 target gene, in KMS12BM cells, which were spiked into participant plasma samples collected at predose and various postdose timepoints. […] The average cMyc inhibition at steady state (Day 8, from predose to 8 hours) was 30%, 44%, and 65% for the dose of 8 mg (n=11), 12 mg (n=51), and 16 mg (n=7), respectively. […] Inhibition of cMyc was reduced to <10% at trough (Cycle 1 Day 8 predose) in the 8-mg and 12-mg cohorts and ˜30% in the 16-mg cohort.

[3] = Treatment-emergent adverse events and exposure-safety analysis, Compound 1 monotherapy; assay type: in vivo, human; settings: for predicted probability of hyperglycemia incidence: from AUC-hyperglycemia relationship; for AUC: human, plasma, oral
Method: The selected clinical safety endpoints as deemed appropriate (eg, frequently occurring TEAEs (treatment-emergent adverse events), incident rate >20% for all AEs (adverse events) and clinically notable adverse events) were used to evaluate exposure-safety relationships. The safety data from a total of […] participants (including both solid tumors and hematologic malignancies) receiving monotherapy treatment of Compound 1 (n=10 at 8 mg, n=89 at 12 mg, and n=8 at 16 mg) in Parts 1 and 2 were used for analysis.
No statistically significant correlation was identified for steady-state Compound 1 AUC and any TEAEs or clinically notable AEs evaluated in this analysis, except hyperglycemia (p-value<0.05). […] Lack of correlation between Compound 1 AUCss.0-24 and TEAEs could be due to the narrow dose range (8, 12, or 16 mg) explored in this study and small sample sizes in the 8-mg and 16-mg groups of the study (the majority of participants received 12 mg).

[4] = tested on: MPLW515L expressing bone marrow; assay: MPLW515L mouse model of MPN; settings: Compound 1 10 mg/kg QD
[5] = monotherapy 8, 12 or 16 mg, all grades and causality
[6] = ruxolitinib 60 mg/kg BID, or both, oral, 14 days
[7] = ruxolitinib 60 mg/kg BID, combination

CN1C(=O)C(C)(C)Oc2c(-c3cn(C)c(=O)c4[nH]ccc34)cc(S(C)(=O)=O)cc21 [Compound 1, 2,2,4-trimethyl-8-(6-methyl-7-oxo-6,7-dihydro-1H-pyrrolo[2,3-c]pyridin-4-yl)-6-(methylsulfonyl)-2H-1,4-benzoxazin-3(4H)-one]
tumor regression (HEL cells; 30 mg/kg QD oral): one statistical tumor regression | tolerability (body weight loss) (HEL cells; all doses, oral): All doses were tolerated | tumor growth (mean tumor volume) vs vehicle (HEL cells; oral, 1 or 3 mg/kg BID, 3, 10 or 30 mg/kg QD, p<0.02 each group): inhibited tumor growth in a dose-related manner | Tmax, median ([1]; 8 mg QD, cycle 1 day 1, N = 12): 2.00 h | dose proportionality of steady-state Cmax and AUC0-24 ([1]; 8 to 16 mg QD): proportional to dose | steady-state oral clearance, geometric mean CLss/F ([1]; 8 to 16 mg QD): 9.92 to 10.7 L/h | AUC(0-t) ([1]; human, plasma, oral, 2 mg, 2 mg QD, linear PK extrapolation from 12 mg QD, read-out: estimated steady-state AUC0-24): 0.457 µM·h | AUC(0-t) ([1]; human, plasma, oral, 4 mg, 4 mg QD, linear PK extrapolation from 12 mg QD, read-out: estimated steady-state AUC0-24): 0.913 µM·h | AUC(0-t) ([1]; human, plasma, oral, 8 mg, 8 mg QD, cycle 1 day 1, N = 12, read-out: AUClast, geometric mean (CV %)): 2.09 µM·h | AUC(0-t) ([1]; human, plasma, oral, 8 mg, 8 mg QD, cycle 1 day 1, N = 12, read-out: AUClast, mean ± SD): 2.31 ± 1.12 µM·h | Cmax ([1]; human, plasma, oral, 8 mg, 8 mg QD, cycle 1 day 1, N = 12, read-out: Cmax, geometric mean (CV %)): 188 nM | Cmax ([1]; human, plasma, oral, 8 mg, 8 mg QD, cycle 1 day 1, N = 12, read-out: Cmax, mean ± SD): 201 ± 83.6 nM | AUC(0-t) ([1]; human, plasma, oral, 12 mg, 12 mg QD, cycle 1 day 1, N = 99, read-out: AUClast, geometric mean (CV %)): 2.55 µM·h | AUC(0-t) ([1]; human, plasma, oral, 12 mg, 12 mg QD, cycle 1 day 1, N = 99, read-out: AUClast, mean ± SD): 2.74 ± 1.09 µM·h | Cmax ([1]; human, plasma, oral, 12 mg, 12 mg QD, cycle 1 day 1, N = 99, read-out: Cmax, geometric mean (CV %)): 249 nM | Cmax ([1]; human, plasma, oral, 12 mg, 12 mg QD, cycle 1 day 1, N = 99, read-out: Cmax, mean ± SD): 266 ± 94.7 nM | AUC(0-t) ([1]; human, plasma, oral, 12 mg, 12 mg QD, read-out: steady-state AUC0-24, geometric mean): 2.74 µM·h | Cmax ([1]; human, plasma, oral, 12 mg, 12 mg QD, read-out: steady-state Cmax, geometric mean): 272 nM | AUC(0-t) ([1]; human, plasma, oral, 16 mg, 16 mg QD, cycle 1 day 1, N = 7, read-out: AUClast, geometric mean (CV %)): 3.21 µM·h | AUC(0-t) ([1]; human, plasma, oral, 16 mg, 16 mg QD, cycle 1 day 1, N = 7, read-out: AUClast, mean ± SD): 3.37 ± 1.06 µM·h | Cmax ([1]; human, plasma, oral, 16 mg, 16 mg QD, cycle 1 day 1, N = 7, read-out: Cmax, geometric mean (CV %)): 329 nM | Cmax ([1]; human, plasma, oral, 16 mg, 16 mg QD, cycle 1 day 1, N = 7, read-out: Cmax, mean ± SD): 343 ± 93.2 nM | Tmax ([1]; human, plasma, oral, 12 mg QD, cycle 1 day 1, N = 99, read-out: Tmax, median): 0.5 h | half-life ([1]; human, plasma, oral, 12 mg QD, steady-state, read-out: t1/2, geometric mean (converted)): 9.17 h | AUC ([1]; human, plasma, oral, 16 mg QD, read-out: steady-state AUC, geometric mean): 3.61 µM·h | Vd/F ([1]; human, plasma, oral, 8 to 16 mg QD, read-out: volume of distribution, geometric mean Vz/F): 138 to 197 L | Tmax ([1]; human, plasma, oral, multiple-dose, fasted state, 8 to 16 mg QD, read-out: median Tmax): 1 to 2 h | half-life ([1]; human, plasma, oral, multiple-dose, not dose-dependent, read-out: steady-state geometric mean half-life (converted)): ~10 h | accumulation of exposure (steady-state AUC0-24 vs first dose AUC0-24) ([1]; once daily dosing): < 10% | time to steady-state (predicted) ([1]; once daily dosing, based on effective half-life of 10 hours): 2 days | inhibition of cMyc at trough ([2]; 8 mg): < 10% | average cMyc inhibition at steady state ([2]; 8 mg, n=11): 30% | inhibition of cMyc at trough ([2]; 12 mg): < 10% | average cMyc inhibition at steady state ([2]; 12 mg, n=51): 44% | inhibition of cMyc at trough ([2]; 16 mg): ~30% | average cMyc inhibition at steady state ([2]; 16 mg, n=7): 65% | IC50 ([2]; Homo sapiens, KMS-12-BM, 70 participants, nonlinear regression, plasma concentration, read-out: IC50 (ex vivo, composite PK PD curve)): 202 nM | predicted probability of hyperglycemia incidence ([3]; 2 mg): 8.0% | predicted probability of hyperglycemia incidence ([3]; 4 mg): 9.2% | AUCss,0-24, fourth quartile ([3]; FIG. 8, monotherapy 8-16 mg QD): 3.61 µM·h | AUCss,0-24, second quartile ([3]; FIG. 8, monotherapy 8-16 mg QD): 2.07 µM·h | AUCss,0-24, third quartile ([3]; FIG. 8, monotherapy 8-16 mg QD): 2.62 µM·h | AUC ([3]; 12 mg, participant 1011, Grade 4 gastrointestinal hemorrhage, 12 mg QD, read-out: AUCss,0-24 of individual participant): 3.47 µM·h | AUC ([3]; 12 mg, participant 9002, Grade 4 gastrointestinal hemorrhage, 12 mg QD, read-out: AUCss,0-24 of individual participant): 3.61 µM·h | AUC ([3]; 12 mg, participant 12005, Grade 3 INR increased, 12 mg QD, concomitant warfarin, read-out: AUCss,0-24 of individual participant): 6.99 µM·h | AUC ([3]; 16 mg, participant 16001, Grade 3 INR increased, 16 mg QD, concomitant warfarin, read-out: AUCss,0-24 of individual participant): 9.77 µM·h | AUC ([3]; FIG. 8, monotherapy 8-16 mg QD, read-out: AUCss,0-24, first quartile): 0.893 to 2.04 µM·h | clinically notable AE incidence: INR increased ([3]; monotherapy 8, 12 or 16 mg): 8.5% | clinically notable AE incidence: epistaxis ([3]; monotherapy 8, 12 or 16 mg): 9.9% | clinically notable AE incidence: gastrointestinal hemorrhage ([3]; monotherapy 8, 12 or 16 mg): 1.9% | clinically notable AE incidence: hyperglycemia ([3]; monotherapy 8, 12 or 16 mg): 17.4% | TEAE incidence: anemia [3, 5]: 27.3% | TEAE incidence: constipation [3, 5]: 20.7% | TEAE incidence: decreased appetite [3, 5]: 35.5% | TEAE incidence: diarrhea [3, 5]: 27.3% | TEAE incidence: dysgeusia [3, 5]: 19.8% | TEAE incidence: fatigue [3, 5]: 45.5% | TEAE incidence: nausea [3, 5]: 47.9% | TEAE incidence: thrombocytopenia [3, 5]: 28.9% | TEAE incidence: vomiting [3, 5]: 28.1% | AUCss,0-24 of individual participant ([3]; participant 9002, Grade 4 gastrointestinal hemorrhage, 12 mg QD): 2.15 µM·h | AUCss,0-24 of individual participant ([3]; participant 16001, Grade 3 INR increased, 16 mg QD, concomitant warfarin): 9.79 µM·h | spleen size [4, 6]: able to reduce spleen size | white blood cell count [4, 6]: able to slow the expansion of white blood cells | Fa (fraction affected, change vs vehicle), MPL SPL [4, 7]: 0.5558 | MPL SPL (sizes of the spleens) [4, 7]: 0.3611 grams
